{
  "source": "patent US9533957B2",
  "about": "“Tetrazines and method of synthezising the same” (The Regents of the University of California, priority 2012, dated 2017)",
  "key": {"27mer DNA template [1]": {"system": "27mer DNA template", "assay": "Melting temperatures of DNA template with probes and ligation products", "assay_type": "physicochemical", "conditions": "hybridization target against 27mer template; 250 mM NaCl in buffer; 1 μM each oligonucleotide", "procedure": "Melting temperature of probes and ligation products in hybridization buffer (50 mM MOPS pH 7.5, 250 mM NaCl) were measured using a Beckman-Coulter DU 640 spectrophotometer equipped with a high performance temperature controller and micro auto six-cell holder. Samples at 1 μM concentration of each oligonucleotide were heated to 90° C. and slowly cooled to RT over 1-1.5 h before the measurements. Melting temperature values were obtained by cooling samples from 90° C. to 20° C. at the rate of 1° C./min and measuring at 1° C. increments with each read averaged over 1 s."}, "27mer DNA template [2]": {"system": "27mer DNA template", "assay": "Template-driven ligation of tetrazine and cyclopropene oligonucleotide probes (fluorescence)", "assay_type": "biochemical", "conditions": "for change in fluorescence in the absence of template: 1 μM probes, no template", "procedure": "Tetrazine and cyclopropene-modified oligonucleotide probes were ligated in the presence of a DNA or RNA template at a 1:1:1 ratio. Reactions were done in varying solution and temperature conditions, as indicated. Main hybridization buffer was 50 mM MOPS at pH 7.5, 250 mM NaCl. Ligation reactions with a mismatched DNA template were performed in 5 mM MgCl2 in standard 1× Tris-borate buffer (purchased as 10× UltraPure TBE from Invitrogen: 1.0 M Tris pH 8.4, 0.9 M Boric acid, 10 mM EDTA).\nLigation reactions were done in standard 96 fluorescence well plates using SpectraMax GeminiXS (Molecular Devices). Temperature was set by the instrument. Where indicated by standard deviations, experiments were performed multiple times. In order to avoid any secondary structure artifacts, DNA or RNA template with added tetrazine probe was first heated to 90° C. and crash-cooled on ice for 2 min right before the experiment. Each well was filled with a total of 100 μL reaction solution, and reactions were timed from the addition of the cyclopropene probe as the last step before starting the measurements. Wells were scanned every 20-60 s depending on the speed of the reactions by using 485 nm excitation and 538 nm emission with the cutoff set at 495 nm. Control reactions without template were done in parallel each time. Buffer-only well intensities were subtracted from the measured raw data before analysis. Data was analyzed using GraphPad Prism 6.0 by applying a nonlinear fit of a one-phase association to each curve where fluorescein signal during reaction was measured."}, "[3]": {"assay": "Oligonucleotide probe stability in buffer and cell media", "assay_type": "physicochemical", "conditions": "over a 35-hour period"}, "[4]": {"system": "LS174T human colon cancer cells", "assay": "Simultaneous imaging of two metabolically incorporated unnatural sugars and cross reactivity", "assay_type": "cell-based", "procedure": "(§1) The SKBR3 and LS174T cells were incubated for two days in the presence of 100 μM of Ac4ManNCyc and/or 50 μM Ac4GlcNAz on a Lab-Tek chamber slide maintained in cDMEM medium. Treatment of cells with tunicamycin was done by preparing a 0.2 mg/mL stock in DMSO, which was diluted to a final working concentration of 1.2 μM tunicamycin in cDMEM (0.5% DMSO). Cells were washed 3× with phosphate-buffered saline (PBS) and incubated for 1 hour at 37° C. in 10 μM tetrazine-BODIPY TMR-X, 10 μM tetrazine-Alexa flour 488 and/or 15 μM dibenzocyclooctyne (DIBO)-Alexa Fluor 647 in cDMEM. The media was aspirated, and cells were washed twice with PBS before imaging. All photos were collected with an Olympus FV1000 confocal microscope using ImageJ 1.45j software package.\nFinally, we tested whether or not we could simultaneously image two different metabolically incorporated unnatural sugar derivatives, Ac4ManNCyc and tetraacetylated N-azidoacetylgalactosamine (Ac4GalNAz). […] Recent experimental work has shown that alkenes and azides can be mutually orthogonal to each other, even when using highly strained trans-cyclooctenes. Additionally, the Houk group has calculated that methyl-cyclopropene handles, such as those we have previously developed, should be mutually orthogonal to azide cyclooctyne reactions. We incubated LS174T human colon cancer cells with 100 μM Ac4ManNCyc and Ac4GalNAz for 2 days. After incubation, we sequentially stained the cells with 10 μM tetrazine-Alexa Fluor 488 and 15 μM dibenzocyclooctyne (DIBO) 647. […] Similar results were obtained with the SKBR3 cell line. […] The ability to simultaneously label two different metabolically incorporated molecules using live-cell compatible inverse-Diels-Alder and Huisgen reactions expands the capabilities of bioorthogonal metabolic imaging."}, "[5]": {"assay": "Aqueous stability of methyl-cyclopropenes by 1H NMR", "assay_type": "physicochemical", "conditions": "for aqueous stability: aqueous deuterated solutions (D2O/DMSO-d6=4:1)", "excerpt": "(§2) After synthesizing the new cyclopropene mini-tags, we next sought to compare their reactivity with tetrazines through inverse Diels-Alder cycloaddition. Additionally, we also assayed their aqueous stability, since methyl-cyclopropene tags are envisioned to find application in bioorthogonal coupling reactions. In order to monitor kinetics, we reacted eight representative methyl-cyclopropenes with 1-methyl-4-aryl tetrazine under pseudo-first order conditions, and tracked the reaction of tetrazine by monitoring the disappearance of the characteristic absorption at 530 nm, similar to previous reports. For stability experiments, we incubated methyl-cyclopropenes in aqueous deuterated solutions (D2O/DMSO-d6=4:1) as indicated."}, "[6]": {"assay": "Reactivity of methyl-cyclopropene mini-tags with tetrazine, pseudo-first order", "assay_type": "physicochemical", "conditions": "for rate of reaction with tetrazines (in words): aqueous solvent", "excerpt": "as §2"}, "[7]": {"assay": "Storage stability of cyclopropene derivatives", "assay_type": "physicochemical", "conditions": "for storage stability at −20° C.: stored at −20° C."}, "SKBR3 cells": {"system": "SKBR3 cells", "assay": "Live-cell microscopy of metabolically incorporated cyclopropene sugar", "assay_type": "cell-based, human", "conditions": "glycosylation inhibitors or 20 mM ManNAc as competitive substrate", "procedure": "SKBR3 and LS 174T cells were grown in cDMEM media supplemented with 10% fetal bovine serum, 1% L-glutamine, 1% penicillin/streptomycin. Cells were incubated in 5.0% carbon dioxide, 95% humidity at 37° C. Generally, cells were grown in T-75 tissue culture flasks, seeded at densities between 500,000 and 750,000 cells per flask (cells were quantified with the Life Technologies Countess automated cell counter). The cells were trypsinized with TrypLE Express and resuspended in cDMEM. Cells were allowed to incubate for two days before supplementing with Ac4ManNCyc (N-cyclopropeneacetylmannosamine) or Ac4GlcNAz (N-azidoacetylglucosamine). The cells were then analyzed via confocal microscopy and flow cytometry as described below.\nas §1\nIn order to determine if Ac4ManNCyc was incorporated effectively by cells, we incubated adherent human breast cancer (SKBR3) and colon cancer (LS174T) cell lines with 100 μM Ac4ManNCyc for 48 hours in cell media and serum. After incubation, cells were thoroughly washed and then reacted for 1 hour with 10 μM of fluorogenic Alexa Fluor 488 tetrazine. After a second wash, cells were imaged by confocal microscopy (Olympus FV1000). […] In order to ensure that the staining was due to glycan uptake of the probe, we also performed controls by exposing cells to 100 μM Ac4ManNCyc and inhibiting uptake by using glycosylation inhibitors (ie. tunicamycin and αBnGalNAc) or 20 mM of ManNAc as a competitive substrate.^[14] […] These experiments provide evidence that the staining patterns are reporting on glycosylation and uptake of the unnatural cyclopropene mannosamine. We also performed additional studies using flow cytometry to quantitate the relative uptake of sugars that corroborated the imaging data."}, "[8]": {"assay": "Reaction rate determination of cyclopropenes with tetrazine 3", "assay_type": "physicochemical", "procedure": "A tetrazine 3 stock solution was prepared in DMSO and used to prepare tetrazine solutions at 0.6 mM final concentration in 12% v/v DMSO in ddH2O. Reactions were initiated with excess cyclopropene at final concentrations of 6.0, 8.0, and 10.0 mM. The disappearance of the tetrazine absorption peak at 520 nm was tracked over the reaction timeframe by measuring the absorption spectra using a NanoDrop 2000c spectrophotometer (Thermo Scientific). Samples were placed in a quartz cuvette with 10-mm pathlength and stirred at the maximum speed setting of the instrument. The temperature was uncontrolled by the instrument for room temperature (20° C.) measurements, and set and equilibrated at 37° C. for the higher temperature experiments.\nAbsorption spectra were measured manually over time. Absorption peak signal was taken as the average of measurements at 519-521 nm. Baseline signal was determined as the sloping line connecting the measured background levels preceding and following the tetrazine peak (410-430 nm and 590-610 nm, respectively). Final peak intensity value was taken as the signal above the baseline. Reaction rates were obtained by fitting the exponential decays of tetrazine peak absorption intensity as a pseudo first order reaction. Nonlinear data fits were performed with GraphPad Prism. Tetrazine reactions with cyclopropene carbamate 5 were carried out at 20 and 37° C. (data points and corresponding fitted curves at 20° C. in FIG. 51, 37° C. in FIG. 2c). Tetrazine reactions with cyclopropene carboxamide 2 were done at 37° C. ([…]. A representative comparison fit is shown for cyclopropenes 5 and 2 at 8.0 mM concentration reacting at 37° C. with 0.6 mM tetrazine."}},
  "data": [
    {"compound": "13merFl5′tet: 5′-tetrazine-/5AmMC6//iFluorT/CG ATG GCG TCA A-3′ (SEQ ID NO:4) (DNA CGATGGCGTCAA; 5' tetrazine, amino C6 linker, internal fluorescein-dT, chemistry not fully specified)", "values": [
      {"measurement": "Melting T", "setting": "27mer DNA template [1]", "result": 57.4, "unit": "°C"},
      {"measurement": "change in fluorescence in the absence of template", "setting": "27mer DNA template [2]; listed as 13merF15′tet", "result": "no appreciable change in fluorescence over time"},
      {"measurement": "change in fluorescence in the absence of template", "setting": "27mer DNA template [2]; listed as Fluorogenic tetrazine probe", "result": "does not turn on"},
      {"measurement": "increase in the peak emission intensity", "setting": "27mer DNA template [2]; reaction with the cyclopropene probe in the presence of a DNA template", "result": 9.3, "unit": "fold"},
      {"measurement": "autohydrolytic turn-on", "setting": "[3]", "result": "minimal"}
    ]},
    {"compound": "CC(=O)OC[C@H]1OC(OC(C)=O)[C@H](NC(=O)CN=[N+]=[N-])[C@@H](OC(C)=O)[C@H]1OC(C)=O", "note": "(stereo partly drawn) [Ac4GalNAz, tetraacetylated N-azidoacetylgalactosamine, reference compound]", "values": [
      {"measurement": "cell surface staining after co-incubation of both sugars", "setting": "[4]; 100 μM, 2 days, stained with 10 μM tetrazine-Alexa Fluor 488 and 15 μM DIBO 647", "result": "cell surface staining in both the fluorescent channels"},
      {"measurement": "cross reactivity: surface staining with tetrazine-Alexa Fluor 488", "setting": "[4]; cells incubated with only this sugar", "result": "minimal surface staining"}
    ]},
    {"compound": "CC1=CC1/C=C/C(=O)O", "note": "(stereo not drawn) [Compound 13]", "values": [
      {"measurement": "aqueous stability", "setting": "[5]", "result": "unstable to incubation in aqueous solvent at 37 °C"}
    ]},
    {"compound": "CC1=CC1/C=C/C(=O)NCCO", "note": "(stereo not drawn) [Compound 14]", "values": [
      {"measurement": "aqueous stability", "setting": "[5]", "result": "greatly improved stability"},
      {"measurement": "rate of reaction with tetrazines (in words)", "setting": "[6]", "result": "significantly lowered the rate of reaction with tetrazines"}
    ]},
    {"compound": "CC1=CC1/C=C/CO", "note": "(stereo not drawn) [Compound 16]", "values": [
      {"measurement": "time to complete decomposition", "setting": "[5]; D2O/DMSO-d6=4:1 at room temperature", "result": 10.5, "unit": "h"},
      {"measurement": "aqueous stability", "setting": "[5]", "result": "unstable in aqueous solution"},
      {"measurement": "rate of reaction with tetrazines (in words)", "setting": "[6]", "result": "greatly increased the reaction rate"},
      {"measurement": "storage stability at −20° C.", "setting": "[7]", "result": "not stable to long-term storage"}
    ]},
    {"compound": "CC(=O)N[C@H]1[C@@H](O)[C@H](O)[C@@H](CO)O[C@@H]1O", "note": "[ManNAc]", "values": [
      {"measurement": "effect on staining of cells exposed to 100 μM Ac4ManNCyc", "setting": "SKBR3 cells", "result": "lowered fluorescent signal"}
    ]},
    {"compound": "CC1=C([Si](C)(C)C)C1C=O", "note": "(stereo not drawn) [cyclopropen aldehyde 11]", "values": [
      {"measurement": "storage stability at −20° C.", "setting": "[7]", "result": "slowly degrading over 48 hours"}
    ]},
    {"compound": "CC1=CC1C(N)=O", "note": "(stereo not drawn) [cyclopropene 2, 2-methylcycloprop-2-enecarboxamide]", "values": [
      {"measurement": "long-term storage stability", "setting": "[7]", "result": "could be stored for extended periods of time without degradation"},
      {"measurement": "second order rate constant", "setting": "[8]; 37° C., water/DMSO (12% DMSO by volume)", "result": "0.137 ± 0.004", "unit": "M⁻¹ s⁻¹"}
    ]},
    {"compound": "CC1=C([Si](C)(C)C)C1CN", "note": "(stereo not drawn) [cyclopropene amine 3]", "values": [
      {"measurement": "long-term storage stability", "setting": "[7]", "result": "not amenable long-term storage"}
    ]},
    {"compound": "CC1=C([Si](C)(C)C)C1CN=[N+]=[N-]", "note": "(stereo not drawn) [cyclopropene azide 2]", "values": [
      {"measurement": "long-term storage stability", "setting": "[7]", "result": "not amenable long-term storage"}
    ]},
    {"compound": "CC(=O)N[C@H]1[C@@H](OCc2ccccc2)O[C@H](CO)[C@H](O)[C@@H]1O", "note": "[αBnGalNAc]", "values": [
      {"measurement": "effect on staining of cells exposed to 100 μM Ac4ManNCyc", "setting": "SKBR3 cells", "result": "severely diminished staining"}
    ]},
    {"compound": "cyclopropene carbamate", "values": [
      {"measurement": "rates of cycloaddition with unsubstituted tetrazine relative to methyl-tetrazine", "setting": "[6]; previous studies with faster reacting unsubstituted tetrazine", "result": 36, "unit": "fold faster"},
      {"measurement": "rate of cycloaddition relative to cyclopropene amide 1", "setting": "[8]; reacting with tetrazine 3 in aqueous solution", "result": "approximately one-hundred times faster"}
    ]},
    {"compound": "tunicamycin", "values": [
      {"measurement": "effect on staining of cells exposed to 100 μM Ac4ManNCyc", "setting": "SKBR3 cells", "result": "severely diminished staining"}
    ]}
  ]
}
